Results on 1 compound are retold here after publication PMC3663535, “Substrate Selectivity of the Acid-activated Glutamate/γ-Aminobutyric acid (GABA) Antiporter GadC from Escherichia coli” (The Journal of Biological Chemistry, 2013).

This test addresses T1, WT GadC (Escherichia coli, UniProt P63235).
T1 construct: full-length wild type; hexahistidine tag proteolytically removed; recombinant, reconstituted in E. coli polar lipid proteoliposomes
Kind of test: proteoliposome Gln/GABA exchange with membrane potential. It is filed as biochemical. The note with it: 5 mM internal GABA, efflux followed through influx of 50 μM external [3H]Gln; pH 5.5.

T1 sequence (P63235 whole entry): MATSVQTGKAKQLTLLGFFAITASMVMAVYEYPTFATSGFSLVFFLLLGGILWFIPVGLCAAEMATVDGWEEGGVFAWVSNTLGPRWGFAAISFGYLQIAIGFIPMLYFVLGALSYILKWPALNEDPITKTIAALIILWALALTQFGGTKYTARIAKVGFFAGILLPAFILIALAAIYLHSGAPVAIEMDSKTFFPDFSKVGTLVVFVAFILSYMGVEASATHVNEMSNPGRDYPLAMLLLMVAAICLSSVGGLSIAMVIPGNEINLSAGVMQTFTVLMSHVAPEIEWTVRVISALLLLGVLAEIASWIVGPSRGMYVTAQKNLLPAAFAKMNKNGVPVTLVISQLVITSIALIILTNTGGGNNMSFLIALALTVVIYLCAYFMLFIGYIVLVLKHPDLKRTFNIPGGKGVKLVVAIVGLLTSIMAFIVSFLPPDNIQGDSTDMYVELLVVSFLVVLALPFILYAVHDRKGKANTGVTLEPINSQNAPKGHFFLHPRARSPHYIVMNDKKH

As for `NCCCC(=O)O` [GABA], the “proteoliposome Gln/GABA exchange with membrane potential” value is “confirm our prediction that GABA^+ is the transport substrate for GadC”.
